Test results from patent publication EP0415776A2, “Indolobenzoquinoline derivatives, their preparation and their use as anti-arrhythmic drugs” (Sankyo Company Limited, priority 1989, dated 1991).
Where a name gives a salt, the structure may show the parent alone.

Tested on: arrhythmias caused by myocardial ischemia in dogs
Test: arrhythmias caused by myocardial ischemia in dogs (glass bead injected into left coronary artery)
Assay type: in vivo, Male Beagles
Procedure: Male Beagles weighing 8 - 12 kg were anesthetized with sodium pentobarbital (30 mg/kg i.v.). The animal was placed in a supine position, and the left carotid artery was isolated from the surrounding tissue. A metal cannula was then introduced from the left carotid artery and its tip was placed at the coronary orifice. A glass bead having a diameter of 1.7 mm was injected through the metal cannula into the left coronary artery. The glass bead injection produced a ST segment elevation, which was followed by ventricular arrhythmias due to myocardial infarction.
The dog was used in a conscious state for 24 hours after myocardial ischemia developed, when the arrythmic ratio exceeded 70%. The arrhythmic ratio was calculated by dividing the number of arrhythmias by the total heart beats in one minute.
Figures 1 and 2 of the accompanying drawings show the course of the arrhythmias with time following a single intravenous administration of the compound of Example 1 and its racemate, respectively.

N[C@@H]1Cc2c3n(c4cccc(O)c24)C(=O)C[C@H]2CCC[C@@H]1[C@@H]32 [Example 1, (3aR,4R,12aR,12bS) 4-Amino-2,3,3a,4,5,12,12a,12b-octahydro-6-hydroxyindolo[3,2,1,-ij]benz[de]quinolin-11-(1 H)-one hydrochloride sesquihydrate]
suppressing arrhythmias, compared with racemate (Example 1 at 2.5 mg/kg i.v. versus racemate at 5.0 mg/kg i.v.): almost comparable with its racemate at 5.0 mg/kg i.v.
potency in anti-arrhythmic action relative to racemate (single i.v. administration, dogs, inferred from 2.5 mg/kg vs 5.0 mg/kg): about twice
number of arrhythmias per minute (single intravenous administration, conscious dog 24 hours after myocardial ischemia developed, course with time, Figures 1 and 2): decreased the number of arrhythmias per minute
